Assay results from patent US9701709B2 (REATA PHARMACEUTICALS, INC., priority 2012, dated 2017).

Assays:
[1] = system: Alt1, Alt2, Ast1, Ast2 mRNA in AML-12 hepatocytes; test: Transaminase gene mRNA (qPCR) in AML-12; type: cell-based, mouse; conditions: 250 nM or 500 nM, 18 h
Experimental: One hypothesis for this effect is that AIMs directly or indirectly increase transaminase gene expression in the absence of cellular toxicity. […] AML-12 cells were plated in 6-well culture dishes at 3×10^5 cells per well using 2 mL of media per well. […] Each well received 0.1% DMSO. Three independent replicate experiments were performed. Following treatment, media was removed and cells were harvested using RLT buffer (Qiagen). Lysates were homogenized using QIAShredder columns (Qiagen, Catalog #79654) and RNA was isolated using RNeasy Mini kits (Qiagen, Catalog #74104). For reverse transcription, RNA (1 μg) was combined with Oligo(dT)12-18 primer and H2O in a final volume of 23.25 μL. The mixture was heated to 70° C. for 10 min and then placed on ice. A master mix containing 8 μL 5×1st strand buffer, 2 μL 1 mg/ml BSA, 2 μL 20 mM DTT, 4 μL 5 mM dNTP mix, 0.25 μL RNaseOUTTM and 0.5 μL […]® II reverse transcriptase was added to the RNA mixture and incubated at 42° C. for 1 h. The reaction was inactivated by heating to 70° C. for 10 min. The reaction mixture was diluted 1:3 with H2O prior to use in qPCR. 2.5 μL of the diluted reverse transcription reaction was combined with one set of PCR primers (0.36 μM final concentration), 2× iQTM SYBR® Green Supermix (Bio-Rad, Catalog #170-8885) and H2O to a final volume of 20 pt. Sequences for PCR primers are as follows: […] All primers had previously been validated for specificity and amplification efficiency. cDNA was amplified using the following cycle conditions: (95° C. for 3 min, 44 cycles of 95° C. for 30 sec, 60° C. for 15 sec, 72° C. for 15 sec, followed by a melt curve of 55° C. to 95° C. in increments of 0.5° C.). The relative abundance of each target gene was determined using the comparative CT method (ΔΔCT). PCR reactions were run in triplicate wells for each sample.

[2] = system: Nrf2 target genes (NQO1, HMOX1, GCLM, TXNRD1) in HFL1 lung fibroblasts; test: Nrf2 target gene mRNA (qPCR) in HFL1; type: cell-based, human; conditions: HFL1, 18 h
Experimental: HFL1 cells were cultured in F-12K media supplemented with 10% fetal bovine serum and 1% penicillin-streptomycin. BEAS-2B cells were cultured in DMEM/F-12 media supplemented with 10% fetal bovine serum and 1% penicillin-streptomycin. […] Each well received the same amount of vehicle. Following treatment, media was removed and cells were harvested using RLT buffer (Qiagen). Lysates were homogenized using QIAShredder columns (Qiagen, Catalog #79654) and RNA was isolated using RNeasy Mini kits (Qiagen, Catalog #74104). For reverse transcription, RNA (1 μg) was combined with Oligo(dT)12-18 primer and H2O in a final volume of 23.25 μL. The mixture was heated to 70° C. for 10 min and then placed on ice. A master mix containing 8 μL 5×1st strand buffer, 2 μL 1 mg/ml BSA, 2 μL 20 mM DTT, 4 μL 5 mM dNTP mix, 0.25 μL RNaseOUTTM and 0.5 μL […]® II reverse transcriptase was added to the RNA mixture and incubated at 42° C. for 1 h. The reaction was inactivated by heating to 70° C. for 10 min. The reaction mixture was diluted 1:3 with H2O prior to use in qPCR. […] The relative abundance of each Nrf2 target gene was determined using the comparative CT method (ΔΔCT). […]

[3] = 28-day toxicity study in rats; type: in vivo, rat
[4] = system: pyruvate in C2Cl2 muscle cells; test: Pyruvate levels in C2Cl2 myotubes; type: cell-based, rodent; conditions: differentiated C2Cl2 myotubes; 250 nM or 500 nM, 18 h
Experimental: Following drug treatment, media was removed and cells were washed with PBS. Cells were lysed in Pyruvate Assay Buffer (Pyruvate Assay Kit, BioVision, Catalog # K609-100). Cell lysates were centrifuged (10 min at 14,000 rpm, 4° C.) and pyruvate levels were measured in the supernatant.

CYP2D6 = CYP2D6 (Homo sapiens, UniProt P10635); test: CYP450 inhibition in pooled human liver microsomes, CYP2D6; type: in vitro ADME; conditions: highest concentration tested (3 μM)
Description: In addition, there was little or no evidence of metabolism-dependent inhibition of any of the enzymes tested.

[5] = Plasma protein binding (ultracentrifugation), rat
[6] = system: rat GSTA2 ARE (Nrf2) in AREc32 reporter cell line; test: GSTA2-ARE luciferase reporter in AREc32; conditions: 15.6 nM, 18 h
[7] = Plasma protein binding (ultracentrifugation), monkey
[8] = Topical pharmacokinetics in rats; type: in vivo, rat; conditions: 0.01% to 3% suspension in sesame oil
Description: The topical administration was formulated as a suspension in sesame oil.

[9] = system: STAT3 phosphorylation in HeLa cells; test: IL-6-induced STAT3 phosphorylation in HeLa; type: cell-based, human; conditions: 1 μM, 6 h pretreatment
[10] = Oral pharmacokinetics, statements pooled over mice, rats, and monkeys; type: in vivo; conditions: mouse, rat, monkey, plasma; after oral administration; read-out: Apparent terminal half-life
Experimental: (§1) Measurements were performed on TQD and QToF mass spectrometers (Waters).
(§2) Following oral administration of a suspension formulation at doses of 10 to 100 mg/kg, maximal concentrations were observed within 1 to 2 h in mice, and within 1 to 24 h in rats and monkeys.

[11] = Metabolism in monkey liver microsomes; type: in vitro ADME; conditions: 60-min incubation, NADPH and UGT
[12] = Oral pharmacokinetics in mice; type: in vivo, mouse; conditions: oral suspension, 10 to 100 mg/kg
Experimental: as §1, §2

Sequence of CYP2D6 (P10635 whole entry): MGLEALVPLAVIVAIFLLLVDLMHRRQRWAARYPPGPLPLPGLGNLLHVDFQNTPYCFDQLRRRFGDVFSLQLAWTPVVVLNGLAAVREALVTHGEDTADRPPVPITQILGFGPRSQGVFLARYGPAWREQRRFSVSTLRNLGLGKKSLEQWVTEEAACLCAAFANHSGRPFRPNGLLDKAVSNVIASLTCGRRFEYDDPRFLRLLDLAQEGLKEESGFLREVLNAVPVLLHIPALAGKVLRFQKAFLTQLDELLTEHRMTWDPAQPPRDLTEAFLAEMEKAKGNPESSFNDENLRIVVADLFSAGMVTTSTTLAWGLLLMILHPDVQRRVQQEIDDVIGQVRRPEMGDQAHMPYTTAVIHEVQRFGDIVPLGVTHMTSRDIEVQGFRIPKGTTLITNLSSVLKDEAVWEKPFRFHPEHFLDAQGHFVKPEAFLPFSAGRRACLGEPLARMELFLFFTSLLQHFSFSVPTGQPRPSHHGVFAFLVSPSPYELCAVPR

CC1(C)CC[C@]2(NC(=O)C(C)(F)F)CC[C@]3(C)[C@H](C(=O)C=C4[C@@]5(C)C=C(C#N)C(=O)C(C)(C)[C@@H]5CC[C@]43C)[C@@H]2C1 [RTA 408, N-((4aS,6aR,6bS,8aR,12aS,14aR,14bS)-11-cyano-2,2,6a,6b,9,9,12a-heptamethyl-10,14-dioxo-1,2,3,4,4a,5,6,6a,6b,7,8,8a,9,10,12a,14,14a,14b-octadecahydropicen-4a-yl)-2,2-difluoropropanamide]
mRNA levels of alanine transaminase 1 (Alt1 or Gpt1) [1]: increased mRNA levels of alanine transaminase 1 | mRNA levels of alanine transaminase 2 (Alt2 or Gpt2) [1]: no effect | mRNA levels of aspartate transaminase 1 (Ast1 or Got1) [1]: increased mRNA levels | mRNA levels of aspartate transaminase 2 (Ast2 or Got2) [1]: reduced mRNA levels | Lowest concentration at which induction of Nrf2 target genes was evident [2]: 15.6 nM | Transaminases [3]: Transaminase elevations were observed | Intracellular pyruvate levels [4]: increased intracellular pyruvate levels in a dose-dependent manner | inhibition at 3 µM (CYP2D6): < 50% | fraction unbound [5]: 0.05 | Induction of luciferase activity, GSTA2-ARE reporter [6]: ~2 fold | fraction unbound [7]: 0.05 | Plasma concentrations after topical administration [8]: lower plasma concentrations relative to similar oral dosing | IL-6-induced phosphorylation of STAT3 [9]: inhibited phosphorylation of STAT3 induced by IL-6 | half-life [10]: 6 to 26 h | Parent molecule remaining [11]: < 10% | Time of maximal concentrations [12]: 1 to 2 h
